From patent publication US10316008B2, “KCNQ potassium channel agonist, and preparation method therefor and use thereof” (SHANGHAI INSTITUTE OF MATERIA MEDICA, CHINESE ACADEMY OF …, priority 2014, dated 2019) come the findings set out here.

Data set [1] in a line: Pharmacokinetics and distribution in brain tissue in rats. Format: in vivo, Sprague Dawley rats. Conditions: SD rats; for Vd: read-out: VdSS. The procedure:
After K43 was administered to Sprague Dawley rats via intravenous injection or oral administration, blood sample and brain tissue were collected at different time points. the concentration of K43 in plasma and brain of rats after administration of the compounds was analyzed by LC-MS/MS and used to calculate the pharmacokinetic parameters, evaluating the oral bioavailability and distribution in brain tissue of K43 in rats.
24 SD rats, which were provided by SHANGHAI SLAC LABORATORY ANIMAL CO. LTD., were used to perform the experiments according to the following table.
About 0.15 mL of blood was collected through orbit per animal every time, and EDTAK2 was used for anticoagulation. For IV group, the time points for collection were before administration (0 hr), and 5 min, 15 min, 30 min, 1 h, 2 h, 4 h, 6 h, 8 h and 24 h after administration; and for PO group, the time points for collection were before administration (0 hr), 15 min, 30 min, 1 h, 2 h, 4 h, 6 h, 8 h and 24 h after administration. The time points for collecting brain tissue were 0.25, 0.5, 1, 2, 4, 6 and 24 h. The collected blood samples were placed on icen, and plasma was centrifuged within 1 h (centrifugal condition: 12000 rpm, 2 min, 4° C.). The collected plasma was cryopreserved in a −20° C. refrigerator before analysis.
Pharmacokinetic parameters after administration were calculated according to the obtained data of plasma concentration using the non-compartmental model of WinNonlin V6.3.

Data set [2] relates to KCNQ potassium channel. In words: Whole-cell voltage-clamp recording in CHO-K1 cells transfected with KCNQ plasmid. Format: cell-based. Conditions: for I/I0: current enhancement factor, −10 mV testing voltage, compound concentration 10 μM, >1 activating, <1 inhibiting; for ΔV1/2: shift of V1/2, negative sign = left-ward shift of current activation curve, compound 10 μM, CHO-K1 cells. As to the method:
The culture medium for Chinese hamster oocytes (CHO-K1) (Culture Collection of Chinese Academy of Sciences): 50/50 DMEM/F-12 (Cellgro, Manassas, Va.), added with 10% fetal bovine serum (FBS) (Gibco, Australia) and 2 mM L-glutamic acid (Invitrogen). […] Lipofectamine 2000™ agent (Invitrogen) was used for Transfection according to the protocol thereof. GFP (green fluorescent protein) was cotransfected to be used as a indication of successful converting into KCNQ plasmid.
Whole-cell voltage-clamp recording was performed on an Axopatch-200B amplifier (Molecular Devices, Sunnyvale, Calif.) at room temperature. The electrode was made by drawing borosilicate glass capillary (World Precision Instruments, Sarasota, Fla.). The electric resistance of the electrode filled with an intracellular fluid is 3 to 5 MΩ. […] During the recording, an extracellular fluid was continuously perfused by using a BPS perfusion system (ALA Scientific Instruments, Westburg, N.Y.). The composition of the extracellular fluid (1 L) was as follows: 140 mM NaCl(Sigma), 5 mM KCl(Sigma), 2 mM CaCl2(Sigma), 1.5 mM MgCl2(Sigma), 10 mM HEPES(Sigma) and 10 mM glucose(Sigma) (pH was adjusted to 7.4 with NaOH). […] Series resistors compensate 60 to 80%. Up to date, multivoltage scheme was generally adopted, wherein the clamp voltage was set at −80 mV, stimulating voltage was a gradient voltage from −90 mV to 60 mV with interval of 10 mV, and the stimulating time for each voltage was 2000 ms.
V1/2 is the voltage at which 50% of cells were activated, ΔV1/2 is the shift amount of V1/2, negative sign (−) represents a left-ward shift of the current activation curve. I/I0 represents the current enhancement factor, wherein, I0 is the maximum induced current produced under stimulation of −10 mV testing voltage after administrating cells with blank extracellular fluid, I is the maximum induced current produced under stimulation of −10 mV testing voltage after administrating the drug (the compound concentration was 10 μM), I/I0>1 represents activating activity, and I/I0<1 represents inhibiting activity. N is the number of tested cells. NT represents non-tested.

The nature of data set [3]: Rotarod experiment, motor coordination ability (acute neurotoxicity). Type of data set: in vivo, KM mice. Conditions: both sexes, KM, mouse, in vivo; mice, oral perfusion, Rotarod 30 mins after administration; read-out: TD50 (50% acute neurotoxicity dose). As to the method:
YLS-4C Rotarod system was used in the experiment, wherein the diameter of the rod was 3 cm and the rotate speed was set at 6 rpm. Healthy KM mice (SPF level) were selected, wherein male and female were equal, the body weight was 18 to 22 g. One day before experiment, the mice were place on the rotarod for training and screening. The tail tip of mice was held to make them creep on the rotarod during the training. […] The mice that jumped on the rotarod or griped the rotarod were weed out. In addition, three time periods were set with 1 min for each. […] The qualified mice were randomly caged according to the gender, and allowed to eat and drink freely.
On the day of the experiment, each compound to be tested was freshly formulated by the same method as described in MES experiment. If the compound was not sufficiently suspended, the suspension was further mixed by ultrasonication for 20 min so as to make the compound sufficiently suspended. […] 30 mins after administration, Rotarod experiment was performed and the experiment parameters were the same as the above. The number of mice that fell off from the rorarod was recorded, and the influence of each compound on motor coordination ability of mice was analyzed. The curve for dose of each compound verse motor deficit (percentage) of mice for each compound was obtained according to the analysis of Graphpad Prism 5 software and was shown in FIG. 4.

Setting [4] is: IV 0.500 mg/kg, plasma, individual animals IV-1 to IV-3, 0.5 mg/kg.
The mark [5] stands for this setting: PO 5.00 mg/kg, plasma, individual animals PO-4 to PO-6, 5 mg/kg.
Setting [6] is: Sprague-Dawley, rat, plasma, iv, 0.5 mg/kg, IV 0.500 mg/kg, individual animals IV-1 to IV-3.
Setting [7] is: Sprague-Dawley, rat, plasma, iv, 0.5 mg/kg, IV 0.500 mg/kg, mean.

Several values for one entry are separate records, joined by “and”; a condition that tells them apart may be missing. Identical values can stand only once. Counter-ions that a name gives are not always drawn. Like-named read-outs stand apart in the source and are kept apart here.

With `C#CCN(Cc1ccc(F)cc1)c1cc(C)c(NC(=O)OC)c(C)c1` [Compound K43, methyl 4-(N-parafluorobenzyl-N-propargyl-amino)-2,6-dimethylphenylaminoformate], the AUC0-t was 232 ng·h/mL and 239 ng·h/mL in data set [1] (setting [4]); 2895 ng·h/g in data set [1] (PO 5.00 mg/kg, brain tissue (AUC0→24 hr)); 467 ng·h/mL and 1379 ng·h/mL and 379 ng·h/mL in data set [1] (setting [5]); 219 ng·h/mL in data set [1] (Sprague-Dawley, rat, plasma, iv, 0.5 mg/kg, IV 0.500 mg/kg, plasma, individual animals IV-1 to IV-3, read-out: AUC0-t); 230 ng·h/mL in data set [1] (Sprague-Dawley, rat, plasma, iv, 0.5 mg/kg, IV 0.500 mg/kg, plasma, mean, read-out: AUC0-t); 742 ± 554 ng·h/mL in data set [1] (Sprague-Dawley, rat, plasma, po, 5 mg/kg, PO 5.00 mg/kg, plasma, mean (AUC0→24 hr), read-out: AUC0-t). For the same compound, the AUC(0-inf) is 236 ng·h/mL and 242 ng·h/mL in data set [1] (setting [4]); 4314 ng·h/g in data set [1] (PO 5.00 mg/kg, brain tissue); 471 ng·h/mL and 1605 ng·h/mL and 407 ng·h/mL in data set [1] (setting [5]); 221 ng·h/mL in data set [1] (Sprague-Dawley, rat, plasma, iv, 0.5 mg/kg, IV 0.500 mg/kg, plasma, individual animals IV-1 to IV-3, read-out: AUC0-inf); 233 ng·h/mL in data set [1] (Sprague-Dawley, rat, plasma, iv, 0.5 mg/kg, IV 0.500 mg/kg, plasma, mean, read-out: AUC0-inf); 828 ng·h/mL in data set [1] (Sprague-Dawley, rat, plasma, po, 5 mg/kg, PO 5.00 mg/kg, plasma, mean, read-out: AUC0-inf). Besides, the AUMC0-inf is 304 h · h · ng · mL^−1 and 295 h · h · ng · mL^−1 and 293 h · h · ng · mL^−1 in data set [1] (setting [4]); 297 h · h · ng · mL^−1 in data set [1] (IV 0.500 mg/kg, plasma, mean); 85535 h · h · ng · g^−1 in data set [1] (PO 5.00 mg/kg, brain tissue); 2497 h · h · ng · mL^−1 and 18103 h · h · ng · mL^−1 and 1256 h · h · ng · mL^−1 in data set [1] (setting [5]); 7285 h · h · ng · mL^−1 in data set [1] (PO 5.00 mg/kg, plasma, mean). Also, the AUMC0-t in data set [1] (setting [4]) was 287 h · h · ng · mL^−1 and 258 h · h · ng · mL^−1 and 270 h · h · ng · mL^−1; in data set [1] (IV 0.500 mg/kg, plasma, mean), 271 h · h · ng · mL^−1; in data set [1] (PO 5.00 mg/kg, brain tissue), 25306 h · h · ng · g^−1; in data set [1] (setting [5]) it was 2360 h · h · ng · mL^−1 and 10030 h · h · ng · mL^−1 and 957 h · h · ng · mL^−1; in data set [1] (PO 5.00 mg/kg, plasma, mean) it was 4449 h · h · ng · mL^−1. In addition, the CL in data set [1] (setting [4]) is 35.3 mL/kg/min and 34.5 mL/kg/min. Also, the Kcl is 0.552 h⁻¹ and 0.427 h⁻¹ and 0.516 h⁻¹ in data set [1] (setting [4]); 0.498 h⁻¹ in data set [1] (IV 0.500 mg/kg, plasma, mean); 0.186 h⁻¹ and 0.0857 h⁻¹ and 0.371 h⁻¹ in data set [1] (setting [5]); 0.214 h⁻¹ in data set [1] (PO 5.00 mg/kg, plasma, mean). Moreover, the MRTIV in data set [1] (setting [4]) was 1.38 h and 1.25 h and 1.21 h; in data set [1] (IV 0.500 mg/kg, plasma, mean) it was 1.28 h. Besides, the VdSS in data set [1] (setting [4]) is 2.65 L/kg and 2.51 L/kg. For the same compound, the t1/2 in data set [1] (setting [4]) is 1.62 h and 1.34 h; in data set [1] (setting [5]) it was 3.74 h and 8.09 h and 1.87 h. Also, the Kel in data set [1] (PO 5.00 mg/kg, brain tissue) amounted to 0.0542 h⁻¹. In addition, the MRTPO in data set [1] (PO 5.00 mg/kg, brain tissue) is 19.8 h; in data set [1] (setting [5]) it was 5.30 h and 11.3 h and 3.09 h; in data set [1] (PO 5.00 mg/kg, plasma, mean), 6.55 h. In addition, the F in data set [1] (PO 5.00 mg/kg, individual animals PO-4 to PO-6, 5 mg/kg) is 20.3% and 59.9% and 16.5%. In addition, the Cmax (usually the maximum level reached in the sampled fluid or tissue) is 62.7 ng/mL and 138 ng/mL and 107 ng/mL in data set [1] (setting [5]); 366 ng/g in data set [1] (Sprague-Dawley, rat, brain, po, 5 mg/kg, PO 5.00 mg/kg, brain tissue, read-out: Cmax); 103 ± 37.8 ng/mL in data set [1] (Sprague-Dawley, rat, plasma, po, 5 mg/kg, PO 5.00 mg/kg, plasma, mean, read-out: Cmax). Further, the Tmax – broadly, the time at which the peak concentration occurs – in data set [1] (setting [5]) is 4.00 h and 1.00 h; in data set [1] (Sprague-Dawley, rat, brain, po, 5 mg/kg, PO 5.00 mg/kg, brain tissue, read-out: tmax), 2 h; in data set [1] (Sprague-Dawley, rat, plasma, po, 5 mg/kg, PO 5.00 mg/kg, plasma, mean, read-out: tmax), 2.33 ± 1.53 h. Also, the half-life – broadly, the time in which the quantity being followed falls by half – in data set [1] (Sprague-Dawley, rat, brain, po, 5 mg/kg, PO 5.00 mg/kg, brain tissue) is 768 min; in data set [1] (setting [6]) it was 75.6 min; in data set [1] (setting [7]), 84.6 ± 11.5 min; in data set [1] (Sprague-Dawley, rat, plasma, po, 5 mg/kg, PO 5.00 mg/kg, mean), 274 min. Besides, the clearance (in general, the volume of plasma or blood freed of the substance per unit of time) in data set [1] (setting [6]) came out at 37.8 mL/min/kg; in data set [1] (setting [7]), 35.8 ± 1.7 mL/min/kg. Also, the Vd in data set [1] (Sprague-Dawley, rat, plasma, iv, 0.5 mg/kg, IV 0.500 mg/kg, plasma, individual animals IV-1 to IV-3) came to 3.13 L/kg; in data set [1] (Sprague-Dawley, rat, plasma, iv, 0.5 mg/kg, IV 0.500 mg/kg, plasma, mean), 2.76 ± 0.324 L/kg. Also, the bioavailability (usually the share of a dose that reaches the circulation, judged against a reference dose that is usually intravenous) in data set [1] (Sprague-Dawley, rat, plasma, PO 5.00 mg/kg, mean, read-out: F (oral bioavailability)) is 32.2 ± 24.1%.
Turning to `C#CCN(Cc1ccc(F)cc1)c1ccc(NC(=O)OC)c(C)c1` [K41•HCl], in data set [2], the I/I0 came out at 4.8 ± 0.73 and the ΔV1/2 was −23.28 ± 1.37 mV. Also, the TD50 (commonly the 50% point of the dose-response relation for the toxic effect studied) at 30 min in data set [3] is 103 mg/kg.
For the compound `C#CCN(Cc1ccc(F)cc1)c1cc(C)c(NC(=O)OC)c(C)c1.Cl` [K43•HCl, methyl 4-(N-parafluorobenzyl-N-propargyl-amino)-2,6-dimethylphenylaminoformate hydrochloride], in data set [2], the I/I0 was found to be 4.75 ± 1.29 and the ΔV1/2 is reported as −38.52 ± 1.67 mV. In addition, the TD50 at 30 min in data set [3] turned out to be 152 mg/kg.
